The test relates to potato 5-Lipoxygenase enzyme. Briefly: Lipoxygenase Inhibitor Screening Assay Kit (Cayman), hydroperoxide formation, absorbance 492 nm. In kind it is biochemical. Particulars: positive control at 100 μM. The method, then:
Extracts of cranberry fruit (E1) and cranberry leaf (E2) were prepared with food-grade ethanol, and then filtered and dried as described above. Research grade reagents were used for the rest of the assay preparations. Extracts were dissolved in dimethyl sulfoxide (‘DMSO’) to a final concentration of 50 mg/mL, and then diluted in appropriate buffer for each bioassay to working concentrations.
Cranberry fruit extract (E1) and cranberry leaf extract (E2) were tested for 5-LOX inhibition using the Lipoxygenase Inhibitor Screening Assay Kit (available from Cayman Chemical, Ann Arbor, Michigan, US) and potato 5-Lipoxygenase enzyme (available from Cayman Chemical). This kit measures hydroperoxides produced in the lipoxygenation reaction.
The extracts were dissolved in methanol to final working concentrations. 5-LOX enzyme, Chromagen, and Linoleic Acid solutions were prepared immediately before use. Nordihydroguaiaretic acid (‘NDGA’) was used as a positive control. 5-LOX enzyme was added to the test samples and controls and incubated for five minutes at room temperature to allow for enzyme/inhibitor interaction. Linoleic acid substrate was added to the plate to initiate the reaction, and the plate was then shaken at room temperature for 10 minutes. […] The absorbance was then read at 492 nm. Percent inhibition of the extract concentration was calculated in comparison to the uninhibited control wells. […]

For `CC(Cc1ccc(O)c(O)c1)C(C)Cc1ccc(O)c(O)c1` (stereo not shown) [NDGA, Nordihydroguaiaretic acid], the 5-LOX enzyme inhibition was 100%.

Source of the values: US11918615B2, “Anti-inflammatory botanical extract” (Innophos, LLC, priority 2018, dated 2024).
